These results are taken from article PMC10094171, “Development of Novel Pt(IV)-Carbohydrate Derivatives as Targeted Anticancer Agents against Osteosarcoma” (International Journal of Molecular Sciences, 2023).

For orientation: IC50 means the midpoint of a concentration-inhibition curve.

In assay [1] the test system is MG63 cells on bone-mimetic scaffold. In words: 3D scaffold-based osteosarcoma model (3D OS model), MTT cell viability. Further details: species or system Human. Particulars: 15 µM, MG63 3D OS model. On the procedure: (§1) The drugs were reconstituted in dimethyl sulfoxide (DMSO) at 1 mg/mL concentration, before being diluted in culture media at the required concentration. A 2D in vitro screening of all the drugs was performed at 72 h in a wide concentration range (0.5; 1.5, 5, 15, 30, 60 and 100 µM) on the three different cell lines in terms of cell viability, and the IC50 was calculated. The cell morphology in the presence of the complexes was evaluated at 15 and 30 µM concentrations, for MG63 and SAOS-2 and hFOBs cells, respectively, according to the IC50 at 72 h. […] For the models, a composite hydroxyapatite-based scaffold (MgHA/Coll), as a bone-like matrix, was used in combination with MG63 cells.
Synthesis of bone-mimetic scaffolds. The Mg-doped hydroxyapatite collagen composite scaffolds were designed and synthesised at ISSMC of CNR of Italy. In brief, 150 g of collagen gel (1 wt%, Opocrin SpA, MO, Italy) was diluted into a phosphoric acid solution (2.4 g in 500 mL; H3PO4, 85 wt.%, Sigma-Aldrich) at room temperature to obtain an acidic aqueous homogenous suspension. […]
MTT cell viability assay. A quantitative analysis of cell viability was carried out by using MTT assay, following the manufacturer’s instructions. […]

In the next assay the test system is MG63 cells. In words: 2D MTT cell viability assay, MG63 osteosarcoma cells. It counts as cell-based, Human. Here is the method: as §1
(§2) Cell culture. […] The cell number and viability were determined using the trypan blue dye exclusion test, and all cell handling procedures were performed under a laminar flow hood in sterility conditions.
(§3) MTT cell viability assay. A quantitative analysis of cell viability was carried out by using MTT assay, following the manufacturer’s instructions. […] After 15 min of incubation under slight stirring conditions, the absorbance of formazan was read at 570 nm by using a Multiskan FC Microplate Photometer (Thermo Fisher Scientific, Waltham, MA, USA). The values of absorbance are directly proportional to the number of metabolic active cells in each well. […]
On the technique in general: Formazan colour is commonly taken as a measure of viable cells.

The test system of another assay is SAOS-2 cells. In words: 2D MTT cell viability assay, SAOS-2 osteosarcoma cells. It is filed as cell-based, Human. Particulars: SAOS-2, 2D, 72 h. Here is the method:
as §1, §2, §3

Another assay concerns hFOBs cells. In words: 2D MTT cell viability assay, non-cancerous human foetal osteoblasts. It is filed as cell-based. Particulars: hFOBs (healthy cells), 72 h. On the procedure: The drugs were reconstituted in dimethyl sulfoxide (DMSO) at 1 mg/mL concentration, before being diluted in culture media at the required concentration. A 2D in vitro screening of all the drugs was performed at 72 h in a wide concentration range (0.5; 1.5, 5, 15, 30, 60 and 100 µM) on the three different cell lines in terms of cell viability, and the IC50 was calculated. […] For the models, a composite hydroxyapatite-based scaffold (MgHA/Coll), as a bone-like matrix, was used in combination with MG63 cells.
as §2, §3
Statistical Analysis. […] The MTT results were further analysed using one-way analysis of variance (one-way ANOVA) and Dunnett’s multiple comparisons test. […]

Take `N.N.[Cl][Pt][Cl]` [Cisplatin, cis-[(NH3)2PtCl2], reference compound]: the “effect on cell viability in 3D OS model” value in assay [1] is “did not compromise the cell viability”. Besides, the “effect on viable cells in 2D standard culture” value with MG63 cells (15 µM, 2D standard culture, p-value ≤ 0.0001) is on record as “significantly reduced the viable cells”. The 50% inhibitory concentration (IC50) is 12.2 µM in the assay with MG63 cells (MG63, 2D, MTT, 72 h); 13.7 µM in the assay with SAOS-2 cells; 4.11 µM in the assay on hFOBs cells; 4.1 µM in the assay with hFOBs cells (listed as cisplatin).
